Assay results as given in US6358999B2, “Use of zinc tranexamate in the treatment of diabetes” (Hamari Chemicals, LTD, priority 2000, dated 2002).

Tests used:
[1] = 1,200 mg/kg orally administered to mice; cited from earlier work
[2] = Suppressive effect on elevation of blood sugar level after sucrose loading in mice; type: in vivo
Protocol: Each group consisting of five mice was fasted for 17-24 hours and then Y-4 was orally administered at varying doses.
Mice were orally given 1 g/kg body weight of sucrose 30 minutes after the administration of Y-4 or 2 g/kg body weight of sucrose 2 hours after the administration of Y-4. As in the preceding example, blood samples were collected from the tail end of mice at different time intervals and assayed for blood sugar levels.

[3] = Blood sugar and insulin levels in streptozocin-induced diabetic mice after sucrose loading; type: in vivo; conditions: STZ diabetic mice; for Blood sugar level: 200 mg/kg p.o. 30 minutes before sucrose 2 g/kg
Protocol: Experimental diabetes was induced in mice by treating the mice with streptozocin (STZ) (100 mg/kg/day i.p. for two days). After fasting for 17-24 hours, the mice were orally given Y-4 at varying doses 30 minutes before loading 2 g/kg of sucrose. After sucrose loading, blood samples were collected and assayed for blood sugar levels at different time intervals as in the preceding examples.
Similar to the above experiments, Y-4 was orally administered to the mice having experimental diabetes at a dose of 100 mg/kg 30 minutes before loading of 2 g of sucrose. Blood sugar and insulin levels in blood samples collected 30 minutes after sugar loading are shown in FIG. 1 and FIG. 2, respectively.

intestinal α-glucosidase [4] = assay: Inhibition of intestinal α-glucosidase activity of streptozocin-induced diabetic mouse; type: biochemical; conditions: for Glucose (glucose production from maltose) / Glucose (glucose production from sucrose): diabetic mouse; for Glucose (glucose production from maltose): substrate maltose; for Glucose (glucose production from sucrose): substrate sucrose
Protocol: (§1) Intestinal tract enucleated from a normal mouse was homogenized by the conventional method after removing membrane mucosa. As a substrate, sucrose, starch, maltose or isomaltose was used. The homogenate was incubated with the substrate in the presence of a test compound (Y-4 or zinc chloride) at 37° C. for 30 minutes. The reaction mixture was centrifuged and the glucose concentration in the resulting supernatant was assayed. The glucose assay was conducted calorimetrically by adding a chromogenic reagent (0.47 mol/l of orthotoluidine, 16 mol/l of acetic acid, 10 mmol/l of boric acid) to the supernatant, heating the mixture in a boiling water bath for 8 minutes and measuring the absorbance at 635 nm. α-Glucosidase activity expressed in terms of glucose concentration/mg protein was calculated.
Example 5 was repeated using intestinal tract enucleated from a diabetic mouse induced by the treatment with streptozocin instead of intestinal tract enucleated from a normal mouse to determine the inhibitory effect of Y-4 on α-glycosidase activity. The intestinal α-glucosidase activity was higher in streptozocin-induced diabetic mouse than in normal mouse. […] The inhibitory effect of Y-4 was more remarkable in the diabetic mouse than in normal mouse.

[5] = Suppressive effect on elevation of blood sugar level after glucose loading in mice; type: in vivo
Protocol: Each group consisting of five mice was fasted for 17-24 hours and then Y-4 was orally administered at varying doses. After 30 minutes, mice were given glucose orally at a dose of 1 g/kg body weight. Blood samples were collected from the tail end of mice at different time intervals and assayed for blood sugar levels using GLUTEST™ sensor available from Matsushita Kotobuki Electronic Industry Company.

intestinal α-glucosidase [6] = assay: Inhibition of intestinal α-glucosidase activity of normal mouse (intestinal homogenate, glucose production); type: biochemical; conditions: for Glucose (glucose production from isomaltose): substrate isomaltose; for Glucose (glucose production from isomaltose) / Glucose (glucose production from maltose) / Glucose (glucose production from sucrose): 37° C., 30 minutes; for Glucose (glucose production from maltose): substrate maltose; for Glucose (glucose production from sucrose): substrate sucrose
Protocol: as §1

[7] = Improvement of insulin resistance in Wistar fatty rats with type II diabetes (glucose loading after 8 weeks); type: in vivo; conditions: 150 mg/kg daily p.o. 8 weeks, after glucose 2.5 g/kg
Protocol: Y-4 was orally administered to male Wistar fatty rats (WFR) having tyep II diabetes with obesity and hyperlipidemia at an average daily dose of 150 mg/kg for consecutive 8 weeks. Eight weeks after the initiation of administration, the rats were fasted for 20 hours and then given oral administration of 2.5 g/kg/rat of glucose. Blood samples were collected from the tail vein at 30, 60, 120 and 180 minutes after the administration of glucose for assaying blood sugar and insulin levels. The results are shown in FIG. 3 and FIG. 4, respsectively.

[8] = 100 mg/kg p.o. 30 minutes before sucrose, 30 minutes after sugar loading

In the case of NC[C@H]1CC[C@H](C(=O)[O-])CC1.NC[C@H]1CC[C@H](C(=O)[O-])CC1.O.[Zn+2] [Y-4, zinc tranexamate monohydrate], the “Acute toxicity (death)” value [1] is listed as “no death”, the Blood sugar level ([2]; 50 mg/kg p.o. 30 minutes before sucrose 1 g/kg, 20 min.) is listed as 71.0 ± 5.9 mg/dL and the Blood sugar level ([2]; 50 mg/kg p.o. 30 minutes before sucrose 1 g/kg, 40 min.) is listed as 90.8 ± 10.0 mg/dL. For the same compound, the Blood sugar level ([2]; 50 mg/kg p.o. 30 minutes before sucrose 1 g/kg, 60 min.) was 76.6 ± 9.9 mg/dL, the Blood sugar level ([2]; 50 mg/kg p.o. 30 minutes before sucrose 1 g/kg, 90 min.) was 68.0 ± 8.1 mg/dL and the “Elevation of blood sugar level after sucrose loading” value ([2]; 100 mg/kg and 200 mg/kg 30 minutes before sucrose loading, up to 90 minutes) was “significant suppressive effect”. The Blood sugar level ([2]; 100 mg/kg p.o. 30 minutes before sucrose 1 g/kg, 20 min.) was 50.8 ± 2.4 mg/dL, the Blood sugar level ([2]; 100 mg/kg p.o. 30 minutes before sucrose 1 g/kg, 40 min.) was 59.3 ± 2.4 mg/dL and the Blood sugar level ([2]; 100 mg/kg p.o. 30 minutes before sucrose 1 g/kg, 60 min.) was 72.9 ± 2.6 mg/dL. It also gave a Blood sugar level ([2]; 100 mg/kg p.o. 30 minutes before sucrose 1 g/kg, 90 min.) of 60.6 ± 2.3 mg/dL, a Blood sugar level ([2]; 200 mg/kg p.o. 30 minutes before sucrose 1 g/kg, 20 min.) of 40.4 ± 0.4 mg/dL and a Blood sugar level ([2]; 200 mg/kg p.o. 30 minutes before sucrose 1 g/kg, 40 min.) of 53.2 ± 7.5 mg/dL. The Blood sugar level ([2]; 200 mg/kg p.o. 30 minutes before sucrose 1 g/kg, 60 min.) was 58.2 ± 8.7 mg/dL, the Blood sugar level ([2]; 200 mg/kg p.o. 30 minutes before sucrose 1 g/kg, 90 min.) was 57.6 ± 3.2 mg/dL and the Blood sugar level ([2]; 200 mg/kg p.o. 2 hours before sucrose 2 g/kg, 20 min.) was 66.2 ± 6.3 mg/dL. For the same compound, the Blood sugar level ([2]; 200 mg/kg p.o. 2 hours before sucrose 2 g/kg, 40 min.) was 84.6 ± 8.9 mg/dL, the Blood sugar level ([2]; 200 mg/kg p.o. 2 hours before sucrose 2 g/kg, 60 min.) was 94.0 ± 18.0 mg/dL and the Blood sugar level ([2]; 200 mg/kg p.o. 2 hours before sucrose 2 g/kg, 90 min.) was 94.4 ± 17.2 mg/dL. The “Blood sugar level (FIG. 1)” value [3, 8] was “suppressed the elevation of blood sugar level almost completely”, the “Insulin level (FIG. 2)” value [3, 8] was “not significantly different from the control value of normal mice group” and the Blood sugar level ([3]; 20 min.) was 96.8 mg/dL. For the same compound, the Blood sugar level ([3]; 40 min.) was 134.2 mg/dL, the Blood sugar level ([3]; 60 min.) was 138.2 mg/dL and the Blood sugar level ([3]; 90 min.) was 137.0 mg/dL. The Blood sugar level ([3]; 180 min.) was 131.8 mg/dL, the “Elevation of blood sugar level after sucrose loading in diabetic mice” value ([3]; 30 minutes before sucrose loading, up to 3 hours) was “remarkably suppressed the elevation of blood sugar level” and the “Glucose (glucose production from maltose)” value (intestinal α-glucosidase [4]; inhibitor 5 mM) was 23.060 ± 1.129 mg/mg protein. The “Glucose (glucose production from maltose)” value (intestinal α-glucosidase [4]; inhibitor 10 mM) was 18.569 ± 1.617 mg/mg protein, the “Glucose (glucose production from maltose)” value (intestinal α-glucosidase [4]; inhibitor 30 mM) was 15.113 ± 0.093 mg/mg protein and the “Glucose (glucose production from maltose)” value (intestinal α-glucosidase [4]; inhibitor 50 mM) was 12.793 ± 0.337 mg/mg protein. For the same compound, the “Glucose (glucose production from sucrose)” value (intestinal α-glucosidase [4]; inhibitor 5 mM) was 10.128 ± 1.137 mg/mg protein, the “Glucose (glucose production from sucrose)” value (intestinal α-glucosidase [4]; inhibitor 10 mM) was 5.312 ± 1.113 mg/mg protein and the “Glucose (glucose production from sucrose)” value (intestinal α-glucosidase [4]; inhibitor 30 mM) was 3.146 ± 0.157 mg/mg protein. For the same compound, the “Glucose (glucose production from sucrose)” value (intestinal α-glucosidase [4]; inhibitor 50 mM) was 2.251 ± 0.327 mg/mg protein, the “Inhibition of intestinal α-glucosidase, all substrates” value (intestinal α-glucosidase [4]; streptozocin-induced diabetic mouse) was “remarkably inhibited” and the Blood sugar level ([5]; 50 mg/kg p.o. 30 min before glucose 1 g/kg, 20 min.) was 96.0 ± 3.5 mg/dL. The Blood sugar level ([5]; 50 mg/kg p.o. 30 min before glucose 1 g/kg, 40 min.) was 104.8 ± 7.1 mg/dL, the Blood sugar level ([5]; 50 mg/kg p.o. 30 min before glucose 1 g/kg, 60 min.) was 99.0 ± 14.0 mg/dL and the Blood sugar level ([5]; 50 mg/kg p.o. 30 min before glucose 1 g/kg, 120 min.) was 78.4 ± 6.4 mg/dL. The Blood sugar level ([5]; 50 mg/kg p.o. 30 min before glucose 1 g/kg, 180 min.) was 58.4 ± 6.0 mg/dL, the Blood sugar level ([5]; 100 mg/kg p.o. 30 min before glucose 1 g/kg, 20 min.) was 89.0 ± 2.9 mg/dL and the Blood sugar level ([5]; 100 mg/kg p.o. 30 min before glucose 1 g/kg, 40 min.) was 112.6 ± 5.0 mg/dL. It also gave a Blood sugar level ([5]; 100 mg/kg p.o. 30 min before glucose 1 g/kg, 60 min.) of 97.6 ± 0.9 mg/dL, a Blood sugar level ([5]; 100 mg/kg p.o. 30 min before glucose 1 g/kg, 120 min.) of 73.1 ± 2.5 mg/dL and a Blood sugar level ([5]; 100 mg/kg p.o. 30 min before glucose 1 g/kg, 180 min.) of 52.1 ± 1.9 mg/dL. The Blood sugar level ([5]; 200 mg/kg p.o. 30 min before glucose 1 g/kg, 20 min.) was 83.0 ± 4.1 mg/dL, the Blood sugar level ([5]; 200 mg/kg p.o. 30 min before glucose 1 g/kg, 40 min.) was 95.2 ± 3.6 mg/dL and the Blood sugar level ([5]; 200 mg/kg p.o. 30 min before glucose 1 g/kg, 60 min.) was 84.4 ± 2.8 mg/dL. For the same compound, the Blood sugar level ([5]; 200 mg/kg p.o. 30 min before glucose 1 g/kg, 120 min.) was 66.2 ± 3.3 mg/dL, the Blood sugar level ([5]; 200 mg/kg p.o. 30 min before glucose 1 g/kg, 180 min.) was 53.9 ± 2.1 mg/dL and the “Elevation of blood sugar level after glucose loading” value ([5]; varying oral doses 30 minutes before glucose 1 g/kg) was “suppressed elevation of blood sugar level”. The “Glucose (glucose production from isomaltose)” value (intestinal α-glucosidase [6]; inhibitor 5 mM) was 5.009 ± 0.387 mg/mg protein, the “Glucose (glucose production from isomaltose)” value (intestinal α-glucosidase [6]; inhibitor 10 mM) was 4.150 ± 0.351 mg/mg protein and the “Glucose (glucose production from isomaltose)” value (intestinal α-glucosidase [6]; inhibitor 30 mM) was 3.473 ± 0.520 mg/mg protein. For the same compound, the “Glucose (glucose production from isomaltose)” value (intestinal α-glucosidase [6]; inhibitor 50 mM) was 3.158 ± 0.206 mg/mg protein, the “Glucose (glucose production from maltose)” value (intestinal α-glucosidase [6]; inhibitor 5 mM) was 17.956 ± 0.423 mg/mg protein and the “Glucose (glucose production from maltose)” value (intestinal α-glucosidase [6]; inhibitor 10 mM) was 14.810 ± 0.956 mg/mg protein. For the same compound, the “Glucose (glucose production from maltose)” value (intestinal α-glucosidase [6]; inhibitor 30 mM) was 10.963 ± 0.399 mg/mg protein, the “Glucose (glucose production from maltose)” value (intestinal α-glucosidase [6]; inhibitor 50 mM) was 5.353 ± 0.017 mg/mg protein and the “Glucose (glucose production from sucrose)” value (intestinal α-glucosidase [6]; inhibitor 5 mM) was 4.078 ± 0.073 mg/mg protein. The “Glucose (glucose production from sucrose)” value (intestinal α-glucosidase [6]; inhibitor 10 mM) was 1.682 ± 0.097 mg/mg protein, the “Glucose (glucose production from sucrose)” value (intestinal α-glucosidase [6]; inhibitor 30 mM) was 0.726 ± 0.157 mg/mg protein and the “Glucose (glucose production from sucrose)” value (intestinal α-glucosidase [6]; inhibitor 50 mM) was 0.436 ± 0.036 mg/mg protein. For the same compound, the “α-Glucosidase activity, all substrates” value (intestinal α-glucosidase [6]; sucrose, starch, maltose, isomaltose, concentration higher than 5 mM) was “inhibited α-glucosidase activity in the reaction with all substrates”, the “Blood sugar level (FIG. 3)” value [7] was “significantly controlled” and the “Insulin level (FIG. 4)” value [7] was “normalized”.
